Results from patent US20090247646A1, “USE OF RESVERATROL AND DERIVATIVES THEREOF FOR PROMOTING THE WELLNESS STATE IN MAMMALS” (priority 2006, published 2009).

System: gene expression in heart tissue
Assay: Genome-wide gene expression in heart tissue of old mice fed a resveratrol-supplemented diet (Affymetrix Mouse Genome 430 2.0 array)
Assay type: in vivo

Measured: Effect of resveratrol on changeing gene expression from old to young profile

Oc1ccc(/C=C/c2cc(O)cc(O)c2)cc1 [resveratrol, 3,4′,5-Trihydroxy-trans-stilbene]
>100%: 1415741_at TPA regulated locus | 1416113_at FK506 binding protein 8 | 1416167_at peroxiredoxin 4 | 1416647_at branched chain ketoacid dehydrogenase E1, alpha polypeptide | 1416648_at dynein, cytoplasmic, heavy chain 1 | 1416698_a_at CDC28 protein kinase 1 | 1416800_at transient receptor potential cation channel, subfamily M, member 7 | 1417149_at procollagen-proline, 2-oxoglutarate 4-dioxygenase (proline 4-hydroxylase), alpha II polypeptide | 1417502_at transmembrane 4 superfamily member 2 | 1417628_at suppressor of Ty 6 homolog (S. cerevisiae) | 1417947_at proliferating cell nuclear antigen | 1417968_a_at methyl-CpG binding domain protein 1 | 1417982_at insulin induced gene 2 | 1418128_at adenylate cyclase 6 | 1418468_at annexin A11 | 1418509_at carbonyl reductase 2 | 1418524_at pericentriolar material 1 | 1418595_at plasma membrane associated protein, S3-12 | 1418648_at EGL nine homolog 3 (C. elegans) | 1418663_at multiple PDZ domain protein | 1418706_at solute carrier family 38, member 3 | 1419034_at casein kinase II, alpha 1 polypeptide | 1419220_at cardiomyopathy associated 1 | 1419665_a_at nuclear protein 1 | 1420620_a_at ring finger protein 13 | 1420727_a_at trimethyllysine hydroxylase, epsilon | 1420834_at vesicle-associated membrane protein 2 | 1420896_at synaptosomal-associated protein 23 | 1420899_at RAB18, member RAS oncogene family | 1420920_a_at ADP-ribosylation factor 1 | 1421468_at potassium inwardly-rectifying channel, subfamily J, member 3 | 1422452_at Bcl2-associated athanogene 3 | 1422799_at HLA-B associated transcript 2 | 1423040_at basic leucine zipper and W2 domains 1 | 1423126_at ATPase, Na+/K+ transporting, beta 3 polypeptide | 1423220_at eukaryotic translation initiation factor 4E | 1423474_at topoisomerase (DNA) I | 1423607_at lumican | 1423845_at expressed sequence AI481750 | 1423898_a_at gene trap locus 6 | 1424164_at mitochondrial ribosomal protein L50 | 1425022_at ubiquitin specific protease 3 | 1425281_a_at delta sleep inducing peptide, immunoreactor | 1425507_at ADP-ribosylation factor related protein 1 | 1425977_a_at serine/threonine kinase 2 | 1426440_at dehydrogenase/reductase (SDR family) member 7 | 1426613_a_at U2 small nuclear ribonucleoprotein B | 1427006_at guanine nucleotide releasing factor 2 | 1427036_a_at eukaryotic translation initiation factor 4, gamma 1 | 1427045_at synaptopodin | 1427245_at ADP-ribosylation factor GTPase activating protein 1 | 1427874_at zinc finger protein 313 | 1429186_a_at cytidine and dCMP deaminase domain containing 1 | 1431054_at LSM6 homolog, U6 small nuclear RNA associated (S. cerevisiae) | 1433558_at disabled homolog 2 (Drosophila) interacting protein | 1433811_at myeloid/lymphoid or mixed lineage-leukemia translocation to 6 homolog (Drosophila) | 1433890_a_at HLA-B-associated transcript 3 | 1433904_at BCL2-antagonist/killer 1 | 1434930_at two pore channel 1 | 1434944_at dystrophia myotonica kinase, B15 | 1435472_at kringle containing transmembrane protein | 1435658_at solute carrier family 27 (fatty acid transporter), member 1 | 1435664_at zinc finger protein 397 | 1436960_at bromodomain containing 3 | 1437892_at Mus musculus transcribed sequences | 1444089_at spectrin beta 2 | 1445186_at stanniocalcin 2 | 1448119_at 2,3-bisphosphoglycerate mutase | 1448185_at homocysteine-inducible, endoplasmic reticulum stress-inducible, ubiquitin-like domain member 1 | 1448277_at polymerase (DNA directed), delta 2, regulatory subunit | 1448307_at Down syndrome critical region homolog 2 (human) | 1448424_at frizzled-related protein | 1448703_at LSM8 homolog, U6 small nuclear RNA associated (S. cerevisiae)
